In one assay the target is T1, SYK kinase (Homo sapiens, UniProt P43405).
T1 construct: purchased Invitrogen, Carlsbad
In words: SYK Assay (OMNIA KINASE ASSAY, SOX peptide fluorescence). The format is biochemical. Particulars: apparent Ki calculated from the IC50 using the Cheng-Prusoff equation; 1 mM ATP, 30° C.; read-out: SYK Activities: Ki. The gist of the method: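 Continuous Omnia assay: SYK phosphorylation of SOX-labelled Tyr 7 peptide (10 µM) with 1 mM ATP and 0.2 mM DTT at 30 °C. Fluorescence (ex 360/em 485 nm) read every 30 s for 30 min. Reaction velocity versus inhibitor concentration gives IC50, converted to apparent Ki by Cheng-Prusoff.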

The next assay addresses LRRK2 (Homo sapiens, UniProt Q5S007). In words: LRRK2-LRRK2 G2019S-Assay (LanthaScreen Eu Kinase Binding Assay). Particulars: 5 nM LRRK2 or their mutants, 10 nM tracer 236, RT 1 h; read-out: LRRK2 Activities: IC50. The protocol: In the assay LanthaScreen™ Eu Kinase Binding Assay by Invitrogen Corporation (Carlsbad) the effect of invention of a compound on the phosphorylation is determined by measurement of fluorescence intensity emission ratio based on the binding and displacement of a proprietary, Alexa Fluor® 647-labeled, ATP-competitive kinase inhibitor scaffold (kinase tracer) to the kinase of interest. Binding of the tracer to the kinase is detected using a europium-labeled anti-tag antibody, which binds to the kinase of interest. Simultaneous binding of both the tracer and antibody to the kinase results in a high degree of FRET (fluorescence resonance energy transfer) from the europium (Eu) donor fluorophore to the Alexa Fluor® 647 acceptor fluorophore on the kinase tracer. Binding of an inhibitor to the kinase competes for binding with the tracer, resulting in a loss of FRET. The fluorescence intensity ratio is directly proportional to the amount of peptide phosphorylation.
To the wells of an 384 well small volume plate (Greiner, Frickenhausen) are added (i) the compound under test in 5% DMSO/distilled water (5 μl), (ii) 5 μl of the kinase antibody mixture resulting in a final concentration 5 nM LRRK2 or their mutants, 2 nM EU-Anti-GST antibody in 1× kinase buffer A. The reaction was started with addition of (iii) 5 μl resulting in a final concentration of 10 nM tracer 236. The assay plate was incubated at RT for 1 h and fluorescence intensitiy readings were collected using a TECAN M1000 at two wavelengthes of λex 340/λem 615 nm and λex 340/λm 665 nm with a delay time of 100 μs and an integration time of 200 μs after 60 minutes. The emission ratio was calculated by division of the acceptor/tracer emission ([…]) by the antibody/donor emission ([…]). The inhibitor concentration was plotted versus the emission ratio to determine the IC50 using XLFit 5.0 (IDBS, Guildford) to fit to a sigmoidal dose response curve with a variable slope.

Ki and IC50 data for 27 molecules are collected here from patent publication US9802937B2, “Substituted pyrazolo{4,3-D}pyrimidines as kinase inhibitors” (ORIGENIS GMBH, priority 2011, dated 2017).

LRRK2, sequence (Q5S007 970-2527 limits assumed): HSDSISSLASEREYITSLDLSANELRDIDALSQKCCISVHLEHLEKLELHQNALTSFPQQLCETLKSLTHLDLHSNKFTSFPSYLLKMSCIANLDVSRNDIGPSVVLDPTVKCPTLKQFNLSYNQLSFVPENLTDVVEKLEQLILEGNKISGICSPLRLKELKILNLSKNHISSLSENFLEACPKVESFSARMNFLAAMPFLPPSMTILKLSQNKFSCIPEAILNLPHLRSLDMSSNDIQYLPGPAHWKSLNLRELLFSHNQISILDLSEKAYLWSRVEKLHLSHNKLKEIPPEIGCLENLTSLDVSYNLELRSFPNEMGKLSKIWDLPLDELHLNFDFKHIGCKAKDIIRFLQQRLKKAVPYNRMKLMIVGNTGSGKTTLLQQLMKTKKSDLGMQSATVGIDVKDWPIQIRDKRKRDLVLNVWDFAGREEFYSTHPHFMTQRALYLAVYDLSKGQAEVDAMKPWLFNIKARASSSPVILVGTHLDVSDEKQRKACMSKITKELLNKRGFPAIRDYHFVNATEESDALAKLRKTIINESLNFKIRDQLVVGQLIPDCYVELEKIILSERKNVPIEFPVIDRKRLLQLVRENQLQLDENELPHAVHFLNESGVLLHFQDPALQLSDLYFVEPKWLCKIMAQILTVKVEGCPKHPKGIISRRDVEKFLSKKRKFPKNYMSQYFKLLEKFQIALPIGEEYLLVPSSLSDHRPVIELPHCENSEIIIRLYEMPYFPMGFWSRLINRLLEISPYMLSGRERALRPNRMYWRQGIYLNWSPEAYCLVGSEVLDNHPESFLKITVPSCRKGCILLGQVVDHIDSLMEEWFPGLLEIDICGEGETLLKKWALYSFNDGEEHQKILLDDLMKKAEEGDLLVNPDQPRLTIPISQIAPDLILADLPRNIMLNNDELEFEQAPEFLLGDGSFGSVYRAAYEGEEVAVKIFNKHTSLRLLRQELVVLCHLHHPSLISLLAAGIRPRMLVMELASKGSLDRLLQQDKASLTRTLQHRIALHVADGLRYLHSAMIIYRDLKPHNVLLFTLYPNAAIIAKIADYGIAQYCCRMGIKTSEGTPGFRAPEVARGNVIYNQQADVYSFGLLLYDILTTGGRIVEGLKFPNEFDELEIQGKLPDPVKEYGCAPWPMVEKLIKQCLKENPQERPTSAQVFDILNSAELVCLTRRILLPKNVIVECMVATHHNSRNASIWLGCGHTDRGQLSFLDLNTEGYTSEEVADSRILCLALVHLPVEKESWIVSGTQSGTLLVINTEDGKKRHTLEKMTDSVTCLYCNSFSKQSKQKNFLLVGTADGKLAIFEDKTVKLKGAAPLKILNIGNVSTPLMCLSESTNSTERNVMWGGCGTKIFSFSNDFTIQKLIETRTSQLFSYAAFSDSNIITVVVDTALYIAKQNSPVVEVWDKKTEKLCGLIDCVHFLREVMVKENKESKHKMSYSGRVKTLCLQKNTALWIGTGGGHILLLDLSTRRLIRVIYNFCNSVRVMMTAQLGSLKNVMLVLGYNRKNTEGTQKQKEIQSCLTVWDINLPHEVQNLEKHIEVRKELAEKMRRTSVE

A word on the IC50: it is the point on the concentration scale where inhibition reaches its midpoint. On to `Fc1cccc(F)c1-c1nc(Nc2ccc(N3CCN(C4CC4)CC3)cc2)c2[nH]ncc2n1` [Example #283, N-(4-(4-cyclopropylpiperazin-1-yl)phenyl)-5-(2,6-difluorophenyl)-1H-pyrazolo[4,3-d]pyrimidin-7-amine], for which the Ki at SYK kinase was 10 to 100 nM. Moreover, the half-maximal inhibitory concentration (IC50) on LRRK2 is 100 to 1000 nM.

With `COc1ccc(-c2nc(Nc3ccc4[nH]ncc4c3)c3[nH]ncc3n2)cc1OC` [Example #40, 5-(3,4-dimethoxyphenyl)-N-(1H-indazol-5-yl)-1H-pyrazolo[4,3-d]pyrimidin-7-amine], the Ki on SYK kinase is 10 to 100 nM. Further, the IC50 at LRRK2 lay in the range of 100 to 1000 nM.

For `c1cc(N2CCOCC2)ccc1Nc1nc(-c2ccc3c(c2)NCCO3)nc2cn[nH]c12` [Example #301, 5-(3,4-dihydro-2H-benzo[b][1,4]oxazin-6-yl)-N-(4-morpholinophenyl)-1H-pyrazolo[4,3-d]pyrimidin-7-amine], the Ki at SYK kinase was 10 to 100 nM. The concentration for half-maximal inhibition (IC50) on LRRK2 lay in the range of 100 to 1000 nM.

Take `COc1ccc(Nc2nc(-c3ccc(OC)c(OC)c3)nc3cn[nH]c23)cc1OC` [Example #24, N,5-bis(3,4-dimethoxyphenyl)-1H-pyrazolo[4,3-d]pyrimidin-7-amine]: the Ki on SYK kinase was 10 to 100 nM. In addition, the IC50 on LRRK2 lay in the range of 100 to 1000 nM.

As to `COc1ccc(Nc2nc(C3CCN(C)CC3)nc3cn[nH]c23)cc1OC` [Example #51, N-(3,4-dimethoxyphenyl)-5-(1-methylpiperidin-4-yl)-1H-pyrazolo[4,3-d]pyrimidin-7-amine], the Ki on SYK kinase was 10 to 100 nM. On LRRK2, the IC50 was in the range of 100 to 1000 nM.

For the molecule `CN1CCN(c2ccc(Nc3nc(-c4cocn4)nc4cn[nH]c34)cc2)CC1` [Example #200, N-(4-(4-methylpiperazin-1-yl)phenyl)-5-(oxazol-4-yl)-1H-pyrazolo[4,3-d]pyrimidin-7-amine], at SYK kinase, the Ki was < 10 nM. Moreover, the IC50 at LRRK2 fell in the range of 100 to 1000 nM.

As to `CN1CCN(c2ccc(Nc3nc(-c4ncco4)nc4cn[nH]c34)cc2)CC1` [Example #203, N-(4-(4-methylpiperazin-1-yl)phenyl)-5-(oxazol-2-yl)-1H-pyrazolo[4,3-d]pyrimidin-7-amine], on SYK kinase, the Ki was < 10 nM. At LRRK2, the IC50 lay in the range of 100 to 1000 nM.

On to `NS(=O)(=O)c1cccc(-c2nc(Nc3ccc(N4CCOCC4)cc3)c3[nH]ncc3n2)c1` [Example #239, 3-(7-((4-morpholinophenyl)amino)-1H-pyrazolo[4,3-d]pyrimidin-5-yl)benzenesulfonamide], for which, at SYK kinase, the Ki is < 10 nM. Besides, on LRRK2, the IC50 was in the range of 100 to 1000 nM.

Turning to `COc1ccccc1-c1nc(Nc2ccc3cn[nH]c3c2)c2[nH]ncc2n1` [Example #111, N-(1H-indazol-6-yl)-5-(2-methoxyphenyl)-1H-pyrazolo[4,3-d]pyrimidin-7-amine], the Ki at SYK kinase was 10 to 100 nM. Besides, at LRRK2, the IC50 was in the range of 100 to 1000 nM.

As to `O=C1COc2ccc(Nc3nc(-c4ccccc4)nc4cn[nH]c34)cc2N1` [Example #37, 6-((5-phenyl-1H-pyrazolo[4,3-d]pyrimidin-7-yl)amino)-2H-benzo[b][1,4]oxazin-3(4H)-one], the Ki on SYK kinase is 10 to 100 nM. For the same molecule, the IC50 at LRRK2 lay within 10 to 100 nM.

As for `c1cc(-c2nc(Nc3ccc(N4CCOCC4)cc3)c3[nH]ncc3n2)cs1` [Example #73, N-(4-morpholinophenyl)-5-(thiophen-3-yl)-1H-pyrazolo[4,3-d]pyrimidin-7-amine], the Ki at SYK kinase is < 10 nM. For the same molecule, on LRRK2, the IC50 fell in the range of 10 to 100 nM.

Regarding `c1cc(-c2nc(Nc3ccc(N4CCSCC4)cc3)c3[nH]ncc3n2)cs1` [Example #145, N-(4-thiomorpholinophenyl)-5-(thiophen-3-yl)-1H-pyrazolo[4,3-d]pyrimidin-7-amine], the Ki on SYK kinase was 10 to 100 nM. Moreover, at LRRK2, the IC50 lay within 10 to 100 nM.

With `c1csc(-c2nc(Nc3ccc(N4CCSCC4)cc3)c3[nH]ncc3n2)c1` [Example #136, N-(4-thiomorpholinophenyl)-5-(thiophen-2-yl)-1H-pyrazolo[4,3-d]pyrimidin-7-amine], the Ki at SYK kinase was 10 to 100 nM. The concentration for half-maximal inhibition (IC50) at LRRK2 is 10 to 100 nM.

Turning to `CN1CCC(c2nc(Nc3ccc(N(C)C)cc3)c3[nH]ncc3n2)CC1` [Example #28, N1,N1-dimethyl-N4-(5-(1-methylpiperidin-4-yl)-1H-pyrazolo[4,3-d]pyrimidin-7-yl)benzene-1,4-diamine], at SYK kinase, the Ki was 10 to 100 nM. Moreover, on LRRK2, the IC50 fell in the range of 100 to 1000 nM.

In the case of `CC(=O)N1CCN(c2ccc(Nc3nc(-c4cscn4)nc4cn[nH]c34)cc2)CC1` [Example #198, 1-(4-(4-((5-(thiazol-4-yl)-1H-pyrazolo[4,3-d]pyrimidin-7-yl)amino)phenyl)piperazin-1-yl)ethan-1-one], the Ki on SYK kinase was < 10 nM. The IC50 at LRRK2 is 100 to 1000 nM.

Turning to `O=C(O)c1cccc(-c2nc(Nc3ccc(N4CCOCC4)cc3)c3[nH]ncc3n2)c1` [Example #156, 3-(7-((4-morpholinophenyl)amino)-1H-pyrazolo[4,3-d]pyrimidin-5-yl)benzoic acid], on SYK kinase, the Ki was 10 to 100 nM. For the same molecule, the concentration for half-maximal inhibition (IC50) on LRRK2 was 100 to 1000 nM.

`COc1ccc(-c2nc(Nc3ccc(N4CCN(C)CC4)cc3)c3[nH]ncc3n2)cc1` [Example #66, 5-(4-methoxyphenyl)-N-(4-(4-methylpiperazin-1-yl)phenyl)-1H-pyrazolo[4,3-d]pyrimidin-7-amine]: the Ki at SYK kinase was < 10 nM. Also, the half-inhibitory concentration (IC50) at LRRK2 lay in the range of 100 to 1000 nM.

Take `c1ccc(-c2nc(Nc3ccc4cn[nH]c4c3)c3[nH]ncc3n2)cc1` [Example #36, N-(1H-indazol-6-yl)-5-phenyl-1H-pyrazolo[4,3-d]pyrimidin-7-amine]: the Ki at SYK kinase was < 10 nM. In addition, at LRRK2, the IC50 was < 10 nM.

As for `CC(=O)N1CCN(c2ccc(Nc3nc(-c4cocn4)nc4cn[nH]c34)cc2)CC1` [Example #201, 1-(4-(4-((5-(oxazol-4-yl)-1H-pyrazolo[4,3-d]pyrimidin-7-yl)amino)phenyl)piperazin-1-yl)ethan-1-one], the Ki at SYK kinase is < 10 nM. The IC50 on LRRK2 was in the range of 100 to 1000 nM.

As for `CN1CCN(C2CCN(c3ccc(Nc4nc(-c5ccccc5F)nc5cn[nH]c45)cc3)CC2)CC1` [Example #278, 5-(2-fluorophenyl)-N-(4-(4-(4-methylpiperazin-1-yl)piperidin-1-yl)phenyl)-1H-pyrazolo[4,3-d]pyrimidin-7-amine], at SYK kinase, the Ki is < 10 nM. Besides, the half-maximal inhibitory concentration (IC50) at LRRK2 was in the range of 100 to 1000 nM.

For `CC(=O)N1CCN(c2ccc(Nc3nc(-c4cccc(S(N)(=O)=O)c4)nc4cn[nH]c34)cc2)CC1` [Example #237, 3-(7-((4-(4-acetylpiperazin-1-yl)phenyl)amino)-1H-pyrazolo[4,3-d]pyrimidin-5-yl)benzenesulfonamide], the Ki on SYK kinase is < 10 nM. Moreover, the IC50 on LRRK2 was in the range of 100 to 1000 nM.

With `CN(C)Cc1ccc(Nc2nc(-c3ccccc3F)nc3cn[nH]c23)cc1` [Example #311, N-(4-((dimethylamino)methyl)phenyl)-5-(2-fluorophenyl)-1H-pyrazolo[4,3-d]pyrimidin-7-amine], at SYK kinase, the Ki was 10 to 100 nM. On LRRK2, the IC50 lay in the range of 100 to 1000 nM.

As for `CN1CCC(c2nc(Nc3ccc4[nH]ncc4c3)c3[nH]ncc3n2)CC1` [Example #50, N-(1H-indazol-5-yl)-5-(1-methylpiperidin-4-yl)-1H-pyrazolo[4,3-d]pyrimidin-7-amine], the Ki on SYK kinase is 10 to 100 nM. The 50% inhibitory concentration (IC50) on LRRK2 was in the range of 100 to 1000 nM.

Regarding `CN1CCC(c2nc(Nc3ccc4c(c3)NCCO4)c3[nH]ncc3n2)CC1` [Example #93, N-(5-(1-methylpiperidin-4-yl)-1H-pyrazolo[4,3-d]pyrimidin-7-yl)-3,4-dihydro-2H-benzo[b][1,4]oxazin-6-amine], on SYK kinase, the Ki is 10 to 100 nM. The 50% inhibitory concentration (IC50) at LRRK2 is 100 to 1000 nM.

`COc1ccc(-c2nc(Nc3ccc(N4CCS(=O)(=O)CC4)cc3)c3[nH]ncc3n2)cc1` [Example #169, 4-(4-((5-(4-methoxyphenyl)-1H-pyrazolo[4,3-d]pyrimidin-7-yl)amino)phenyl)thiomorpholine 1,1-dioxide]: the Ki on SYK kinase was < 10 nM. Further, the IC50 at LRRK2 lay within 100 to 1000 nM.

For the molecule `Fc1cccc(F)c1-c1nc(Nc2ccc(N3CCOCC3)cc2)c2[nH]ncc2n1` [Example #282, 5-(2,6-difluorophenyl)-N-(4-morpholinophenyl)-1H-pyrazolo[4,3-d]pyrimidin-7-amine], the Ki on SYK kinase is 10 to 100 nM. For the same molecule, the concentration for half-maximal inhibition (IC50) on LRRK2 fell in the range of 100 to 1000 nM.

Take `c1cc(-c2nc(Nc3ccc4cn[nH]c4c3)c3[nH]ncc3n2)ccn1` [Example #16, N-(1H-indazol-6-yl)-5-(pyridin-4-yl)-1H-pyrazolo[4,3-d]pyrimidin-7-amine]: the Ki on SYK kinase is < 10 nM. For the same molecule, on LRRK2, the IC50 lay in the range of 100 to 1000 nM.
